In ChEMBL document CHEMBL1132484, “New alpha-substituted succinate-based hydroxamic acids as TNFalpha convertase inhibitors” (J Med Chem, 1999):

Columns and labels:
[1] = target: T1, Interstitial collagenase (Homo sapiens, UniProt P03956); test: Inhibitory activity against MMP-1 (Matrix metalloprotease-1)
T1 sequence (P03956 whole entry): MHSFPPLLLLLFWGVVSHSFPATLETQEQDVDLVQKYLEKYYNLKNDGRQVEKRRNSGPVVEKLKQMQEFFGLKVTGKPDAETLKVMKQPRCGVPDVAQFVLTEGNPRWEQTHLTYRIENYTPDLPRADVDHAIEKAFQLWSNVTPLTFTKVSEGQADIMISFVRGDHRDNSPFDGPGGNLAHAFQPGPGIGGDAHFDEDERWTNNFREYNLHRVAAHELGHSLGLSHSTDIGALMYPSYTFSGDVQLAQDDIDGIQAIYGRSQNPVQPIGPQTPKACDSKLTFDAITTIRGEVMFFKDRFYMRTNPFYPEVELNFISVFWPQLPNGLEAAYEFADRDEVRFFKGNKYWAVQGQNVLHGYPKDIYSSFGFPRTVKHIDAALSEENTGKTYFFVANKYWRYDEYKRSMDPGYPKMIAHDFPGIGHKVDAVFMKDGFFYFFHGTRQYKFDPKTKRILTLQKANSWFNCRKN

[2] = target: T2, Disintegrin and metalloproteinase domain-containing protein 17 (Homo sapiens, UniProt P78536); test: Inhibitory activity against Tumor necrosis factor alpha-converting enzyme (TACE) in blood.; assay type: tissue-based
T2 sequence (P78536 whole entry, the tested form may be a part): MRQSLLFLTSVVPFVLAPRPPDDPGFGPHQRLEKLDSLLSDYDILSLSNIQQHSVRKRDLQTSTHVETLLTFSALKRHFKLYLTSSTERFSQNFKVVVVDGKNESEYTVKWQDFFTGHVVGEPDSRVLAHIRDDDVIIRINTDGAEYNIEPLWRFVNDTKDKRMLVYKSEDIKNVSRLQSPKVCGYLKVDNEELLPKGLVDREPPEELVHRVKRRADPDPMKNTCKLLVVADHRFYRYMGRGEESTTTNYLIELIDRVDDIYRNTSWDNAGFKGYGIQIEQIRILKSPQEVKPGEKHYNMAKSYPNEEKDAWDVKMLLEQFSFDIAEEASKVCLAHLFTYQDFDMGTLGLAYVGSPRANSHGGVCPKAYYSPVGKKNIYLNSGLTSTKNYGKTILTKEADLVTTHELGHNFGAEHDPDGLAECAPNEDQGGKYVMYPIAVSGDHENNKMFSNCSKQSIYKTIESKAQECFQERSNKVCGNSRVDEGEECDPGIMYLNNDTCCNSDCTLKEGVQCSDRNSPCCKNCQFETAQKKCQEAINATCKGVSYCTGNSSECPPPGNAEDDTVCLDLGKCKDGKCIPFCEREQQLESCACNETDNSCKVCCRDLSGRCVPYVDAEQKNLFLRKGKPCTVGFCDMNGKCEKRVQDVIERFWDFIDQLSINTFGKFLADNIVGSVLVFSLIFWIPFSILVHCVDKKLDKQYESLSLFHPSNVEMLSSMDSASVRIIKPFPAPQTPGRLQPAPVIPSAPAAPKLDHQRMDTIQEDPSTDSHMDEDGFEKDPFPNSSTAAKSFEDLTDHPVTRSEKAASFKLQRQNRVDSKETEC

[3] = target: T2, Disintegrin and metalloproteinase domain-containing protein 17; test: Inhibition of TNF(tumor necrosis factor) in human blood; assay type: functional
[4] = target: Neutrophil collagenase (Homo sapiens, UniProt P22894); test: Inhibition of MMP-8 (matrix metalloprotease-8)
Chain of Neutrophil collagenase (P22894 whole entry): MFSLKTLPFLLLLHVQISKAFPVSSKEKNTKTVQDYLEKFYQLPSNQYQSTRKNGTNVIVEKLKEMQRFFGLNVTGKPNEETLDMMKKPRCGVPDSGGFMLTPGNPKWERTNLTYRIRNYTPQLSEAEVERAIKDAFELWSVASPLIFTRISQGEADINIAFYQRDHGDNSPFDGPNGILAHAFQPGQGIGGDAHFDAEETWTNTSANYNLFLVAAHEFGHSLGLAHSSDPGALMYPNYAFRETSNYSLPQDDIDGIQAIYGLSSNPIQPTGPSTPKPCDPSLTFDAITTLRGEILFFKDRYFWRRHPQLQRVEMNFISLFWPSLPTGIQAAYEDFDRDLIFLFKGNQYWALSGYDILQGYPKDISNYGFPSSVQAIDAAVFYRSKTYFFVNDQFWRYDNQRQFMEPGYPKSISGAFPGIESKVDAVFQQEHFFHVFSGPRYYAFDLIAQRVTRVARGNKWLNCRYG

| IC50 [1] [nM] | SMILES | IC50 [2] [nM] | IC50 [3] [nM] | IC50 [4] [nM] |
| --- | --- | --- | --- | --- |
| 2.2 | CNC(=O)[C@@H](NC(=O)[C@H](CC(C)C)[C@H](NC(=O)c1cccc2cccnc12)C(=O)NO)C(C)(C)C | 2 | 8000 |  |
| 0.88 | CNC(=O)[C@@H](NC(=O)[C@H](CC(C)C)[C@H](OCc1ccc2c(ccc(=O)n2C)c1)C(=O)NO)C(C)(C)C | 1 | 1440 |  |
| 1.1 | CNC(=O)[C@@H](NC(=O)[C@H](CC(C)C)[C@H](NS(=O)(=O)c1cccc2cccnc12)C(=O)NO)C(C)(C)C | 4.2 | 8100 |  |
| 2.4 | CNC(=O)[C@@H](NC(=O)[C@H](CC(C)C)[C@@H](C(=O)NO)N(C)S(=O)(=O)c1cccc2cccnc12)C(C)(C)C | 4.4 | 4500 |  |
| 1.2 | CNC(=O)[C@@H](NC(=O)[C@H](CC(C)C)[C@H](NS(=O)(=O)c1ccc2ncccc2c1)C(=O)NO)C(C)(C)C | 1.6 | 440 |  |
| 2.2 | CNC(=O)[C@@H](NC(=O)[C@H](CC(C)C)[C@@H](C(=O)NO)N1CCOCC1)C(C)(C)C | 3.4 | 3000 |  |
| 10 | CNC(=O)[C@@H](NC(=O)[C@@H](CC(=O)NO)CC(C)C)C(C)(C)C [RO-319790] | 20 | > 50000 |  |
| 1.5 | CNC(=O)[C@@H](NC(=O)C(CC(C)C)C(C(=O)NO)N(C)S(=O)(=O)c1ccccc1)C(C)(C)C (single isomer, unassigned) | 0.61 | 3000 |  |
| 1.3 | CNC(=O)[C@@H](NC(=O)[C@H](CC(C)C)[C@H](NS(=O)(=O)c1ccc2ncnc(O)c2c1)C(=O)NO)C(C)(C)C | 0.57 | 280 | 3.7 |
|  | C=CCC(C(=O)NO)C(CC(C)C)C(=O)N[C@@H](Cc1ccccc1)C(=O)NC (single isomer, unassigned) | 0.2 | 2300 | 3 |
| 2.8 | CNC(=O)[C@@H](NC(=O)[C@H](CC(C)C)[C@H](SCc1cccc2cccnc12)C(=O)NO)C(C)(C)C | 0.8 | 6200 |  |
|  | CNC(=O)[C@@H](NC(=O)[C@H](CC(C)C)[C@@H](C(=O)NO)N1CCCC1)C(C)(C)C | 2.8 | 6100 |  |
|  | CNC(=O)[C@@H](NC(=O)[C@H](CC(C)C)[C@H](NS(=O)(=O)c1ccc(C(=O)O)cc1)C(=O)NO)C(C)(C)C | 3.2 | 4400 |  |
|  | CC1(C)SCCN(S(=O)(=O)c2ccc(Oc3ccncc3)cc2)[C@H]1C(=O)NO [PRINOMASTAT] | 5.5 | 16600 |  |
|  | CNC(=O)[C@@H](NC(=O)[C@H](CC(C)C)[C@H](NS(=O)(=O)c1cccc2ccccc12)C(=O)NO)C(C)(C)C | 1.2 | 3100 |  |
|  | CNC(=O)[C@@H](NC(=O)[C@H](CC(C)C)[C@H](NS(=O)(=O)c1cccnc1)C(=O)NO)C(C)(C)C | 2.1 | 3800 |  |
|  | CNC(=O)[C@@H](NC(=O)[C@H](CC(C)C)[C@H](Sc1ccc2c(c1)CCC(=O)N2C)C(=O)NO)C(C)(C)C | 1.4 | 6600 |  |
|  | CNC(=O)[C@@H](NC(=O)[C@H](CC(C)C)[C@H](OCc1cccc2ccccc12)C(=O)NO)C(C)(C)C | 0.33 | 7600 |  |
|  | CNC(=O)[C@@H](NC(=O)C(CC(C)C)C(NS(=O)(=O)c1ccc(Br)cc1)C(=O)NO)C(C)(C)C (single isomer, unassigned) | 1.4 | 4400 |  |

| SMILES | IC50 [1] [nM] | IC50 [2] [nM] | IC50 [3] [nM] | IC50 [4] [nM] |
| --- | --- | --- | --- | --- |
| CNC(=O)[C@@H](NC(=O)[C@H](CCCOCc1ccccc1)[C@H](OCc1ccc2nc(C)nc(O)c2c1)C(=O)NO)C(C)(C)C | 330 | 12 |  |  |
| CNC(=O)[C@@H](NC(=O)C(CC(C)C)C(C(=O)NO)C1CCCC1)C(C)(C)C (single isomer, unassigned) | 4 | 1 | 8800 | 20 |
| CNC(=O)[C@@H](NC(=O)[C@H](CC(C)C)[C@H](NCc1cccc2cccnc12)C(=O)NO)C(C)(C)C | 1.7 | 0.23 | 34000 | 0.2 |
| CNC(=O)[C@@H](NC(=O)[C@H](CC(C)C)[C@H](NS(=O)(=O)c1cccc2cnccc12)C(=O)NO)C(C)(C)C | 2.6 | 3.1 | 1100 |  |
